Measurements published in patent US12280039B2, “Cancer vaccine compositions and methods of use thereof” (priority 2018, dated 2025).

Tested on: live 4T1 tumor cells
Test: Serum IgG antibody binding to live 4T1 tumor cells
Type: in vivo, mice
Conditions: inactivated 4T1 vaccine day 1 and 14; serum 1:1000 dilution
Description: The vaccines were given subcutaneously in equal volumes in both the left and right forelimb of the mice, close to the foot. Mice received 1.7×10^6 cells per mouse per vaccine. Vaccines were given on day 1 and then again on day 14. Mice were euthanized 8 days after the booster vaccine was given and spleen and blood was collected. The serum from these mice was screened against live 4T1 tumor cells for IgG antibody binding by incubating serum with the cells at either a 1:500 or a 1:1000 dilution, staining with a fluorescently-labeled donkey anti-mouse secondary antibody, then subtracting out the background staining (normal mouse serum at 1:500 and 1:1000).

**Q.** With CC(C)Cn1cnc2c(N)nc3ccccc3c21 [Imiquimod, imiquimod] as the compound, how does the “serum IgG binding to live 4T1 cells (staining)” value read?
**A.** The value was “variable amounts”.
